Measurements published in ChEMBL document CHEMBL1201862, “PubChem BioAssay data set” (2004).
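96-well plates; 48 h exposure; 5 concentrations. Endpoints by linear interpolation between flanking doses. Not reached: highest tested concentration assigned. Abbreviation: GI50, concentration required for 50% inhibition of growth.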 Active and inactive are the calls of the source. No stated cut-off is given here; in the data, active = GI50 up to about 1.1 µM and inactive = higher.

Legend:
Assay in all cases: DTP human tumour cell line panel, 48 h
[1] = test system: 786-0
[2] = test system: ACHN
[3] = test system: CAKI-1
[4] = test system: CCRF-CEM
[5] = test system: EKVX
[6] = test system: Hs-578T
[7] = test system: K562
[8] = test system: LOX IMVI
[9] = test system: M14
[10] = test system: MDA-MB-435
[11] = test system: RPMI-8226
[12] = test system: SF-268
[13] = test system: SF-295
[14] = test system: SK-MEL-28
[15] = test system: SK-MEL-2
[16] = test system: SK-MEL-5
[17] = test system: SK-OV-3
[18] = test system: NCI-H522
[19] = test system: SR

Measured: GI50

COc1ccc2c(c1)OC1c3ccccc3OCC21 (stereo not given)
inactive: [1] > 100 µM | [2] > 100 µM | [3] > 100 µM | [4] 58.7 µM | [5] 63.7 µM | [6] > 100 µM | [7] 31.8 µM | [8] 81.3 µM | [9] 93.5 µM | [10] 30.7 µM | [11] 71 µM | [12] 32.8 µM | [13] > 100 µM | [14] > 100 µM | [15] > 100 µM | [16] 24.7 µM | [17] > 100 µM

Cc1cccc(C(C)(C)C)c1NC(=O)/C(Cc1nc2ccc([N+](=O)[O-])cc2nc1O)=N\NC(=O)C[N+](C)(C)C
inactive: [1] > 100 µM | [2] > 100 µM | [3] > 100 µM | [5] > 100 µM | [6] > 100 µM | [7] > 100 µM | [8] 51.3 µM | [9] > 100 µM | [10] > 100 µM | [18] 17.4 µM | [11] 84.5 µM | [12] > 100 µM | [13] > 100 µM | [14] > 100 µM | [15] > 100 µM | [16] > 100 µM | [17] > 100 µM

CC(=O)NS(=O)(=O)c1ccc(NC(=O)c2c3ccccc3nc3ccccc23)cc1
inactive: [1] > 100 µM | [2] > 100 µM | [3] > 100 µM | [4] > 100 µM | [5] > 100 µM | [7] > 100 µM | [8] > 100 µM | [9] > 100 µM | [10] > 100 µM | [18] > 100 µM | [11] > 100 µM | [12] > 100 µM | [13] > 100 µM | [14] > 100 µM | [15] > 100 µM | [16] > 100 µM | [17] > 100 µM | [19] > 100 µM

CCN(CC)CCCNC(=O)c1cc(-c2nccn2C)nc2ccccc12
inactive: [1] > 100 µM | [2] > 100 µM | [3] > 100 µM | [4] > 100 µM | [5] > 100 µM | [7] > 100 µM | [8] > 100 µM | [9] > 100 µM | [10] > 100 µM | [18] > 100 µM | [11] > 100 µM | [12] > 100 µM | [15] > 100 µM | [16] > 100 µM | [19] > 10 µM

Cc1sc(Nc2ccccc2[N+](=O)[O-])c(C#N)c1C
inactive: [1] 22.6 µM | [2] 31 µM | [3] 17.1 µM | [4] > 100 µM | [5] 35.4 µM | [7] > 100 µM | [9] > 100 µM | [10] > 100 µM | [18] 2.7 µM | [11] > 100 µM | [12] 14.5 µM | [13] 26.2 µM | [14] 99.3 µM | [17] 66.1 µM | [19] > 100 µM

CCOC(=O)C1=C(C)N(C)C23OC4(C(=O)OC)CC2c2ccccc2C1N3C4=O (stereo not given)
inactive: [1] > 100 µM | [2] > 100 µM | [3] > 100 µM | [4] 79.6 µM | [5] > 100 µM | [7] 83 µM | [8] > 100 µM | [9] 73.8 µM | [10] 30.8 µM | [18] 37.4 µM | [11] 44.8 µM | [12] > 100 µM | [13] 39.3 µM | [14] > 100 µM | [15] > 100 µM | [16] 32.5 µM | [17] > 100 µM | [19] 16.5 µM

O=C(NC1CCCC1=O)c1ccccc1 (stereo not given)
inactive: [1] > 100 µM | [2] > 100 µM | [3] > 100 µM | [4] > 100 µM | [5] > 100 µM | [7] > 100 µM | [9] > 100 µM | [12] > 100 µM | [13] > 100 µM | [14] > 100 µM | [15] > 100 µM | [16] > 100 µM | [17] > 100 µM | [19] > 100 µM

O=C(Nc1ccccc1)C(=O)C(C(=O)c1ccccc1)C(c1ccccc1)c1ccccc1 (stereo not given)
inactive: [1] > 10 µM | [3] > 10 µM | [4] > 10 µM | [5] > 10 µM | [7] > 10 µM | [8] > 10 µM | [9] > 10 µM | [10] > 10 µM | [11] > 10 µM | [12] > 10 µM | [13] > 10 µM | [14] > 10 µM | [16] > 10 µM | [17] > 10 µM | [19] > 10 µM

CC(=O)C(I(OS(=O)(=O)c1ccc(C)cc1)c1ccccc1)=P(c1ccccc1)(c1ccccc1)c1ccccc1
inactive: [1] 30.1 µM | [2] > 100 µM | [3] > 100 µM | [4] 26.9 µM | [5] 28 µM | [6] 23 µM | [7] 30.6 µM | [9] 22.1 µM | [10] 15.8 µM | [18] 11.8 µM | [11] 21.4 µM | [12] 23.7 µM | [13] 99.3 µM | [14] 18 µM | [15] 16 µM | [16] 22.1 µM | [17] 43.6 µM

O=C(Cn1c2ccc(Br)cc2c2nc3ccccc3nc21)Nc1ccccc1
inactive: [1] 14.3 µM | [2] 50 µM | [3] 26.8 µM | [4] 11.9 µM | [6] 26.7 µM | [7] 38.8 µM | [8] 15.8 µM | [9] 30.1 µM | [10] 51.4 µM | [18] 21.6 µM | [11] 37.7 µM | [12] 45.2 µM | [13] 31.3 µM | [14] 36.1 µM | [15] 55 µM | [16] 34.6 µM | [17] > 100 µM

CN1CCc2c(sc3ncn(Nc4ccc(Cl)cc4)c(=N)c23)C1
inactive: [1] > 100 µM | [2] > 100 µM | [3] > 100 µM | [4] > 100 µM | [5] > 100 µM | [6] > 100 µM | [7] > 100 µM | [8] > 100 µM | [9] > 100 µM | [10] > 100 µM | [18] > 100 µM | [11] > 100 µM | [12] > 100 µM | [13] > 100 µM | [14] > 100 µM | [15] > 100 µM | [16] > 100 µM | [17] > 100 µM

CC(C)(C)c1ccc2c(c1)S(=O)(=O)Nc1ccc(Cl)cc1NS(=O)(=O)c1cc(C(C)(C)C)ccc1OCCOCCOCCO2
inactive: [1] 87.3 µM | [2] 42.1 µM | [3] 98.2 µM | [4] > 100 µM | [5] 79.6 µM | [7] > 100 µM | [8] > 100 µM | [9] 81.7 µM | [12] 31.1 µM | [13] 21.6 µM | [14] > 100 µM | [15] 45.6 µM | [16] 28.1 µM | [17] 33 µM
